The source of these data is patent publication US20080124407A1, “INHIBITING CYP3A4 INDUCTION” (UNIVERSITY OF WASHINGTON, priority 2006, published 2008).

The target in data set [1] is T1, SXR (Homo sapiens, UniProt O75469).
T1 sequence (O75469 1-434): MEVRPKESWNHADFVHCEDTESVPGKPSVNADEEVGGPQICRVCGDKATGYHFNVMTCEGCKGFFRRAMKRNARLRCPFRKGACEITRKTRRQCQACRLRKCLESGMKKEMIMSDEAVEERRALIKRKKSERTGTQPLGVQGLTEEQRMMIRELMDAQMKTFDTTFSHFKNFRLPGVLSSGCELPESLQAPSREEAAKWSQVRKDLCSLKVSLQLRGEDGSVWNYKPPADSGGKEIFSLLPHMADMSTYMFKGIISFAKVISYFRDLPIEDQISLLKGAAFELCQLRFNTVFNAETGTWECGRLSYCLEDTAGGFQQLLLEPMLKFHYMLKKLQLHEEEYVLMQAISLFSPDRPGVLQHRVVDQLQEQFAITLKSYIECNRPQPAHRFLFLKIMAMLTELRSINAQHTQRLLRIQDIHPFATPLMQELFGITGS
Nature of the data set: Transient transfection luciferase assay, full-length SXR with CYP3A4-luc reporter in HepG2 cells. Particulars: for inhibitory activity toward SXR function (SFN analogs): 24 hrs.

Data set [2] concerns UGT1A1. Nature of the data set: UGT1A1 gene expression by QRT-PCR. The data set is classed as cell-based, human.
Data set [3] deals with NQO1. The conditions noted are these: human primary hepatocytes, 10 or 25 μM SFN, 48 h.
In data set [4] the target is SXR / SRC-1 interaction (Homo sapiens, UniProt O75469). The conditions noted are these: 10 μM RIF.
Data set [5] deals with mouse PXR (Mus musculus, UniProt O54915). Particulars: 10 μM SFN.
In data set [6] the test system is NQO1. Particulars: LS180 cells, 10 or 25 μM SFN, 48 h.
The test system of data set [7] is NQO1 and Glutamate Cysteine Ligase (both GCLM and GCLC). The conditions noted are these: 10 or 50 μM SFN, 48 hrs.
Data set [8] deals with rat PXR (Rattus norvegicus, UniProt Q9R1A7). Particulars: 10 μM SFN.
For data set [9] the following is noted: human subjects who ingest SFN in a broccoli soup; cited from earlier work.
Data set [10] concerns the target SXR / PBP interaction (Homo sapiens, UniProt O75469). Particulars: 10 μM RIF.
In data set [11] the target is CAR (Homo sapiens, UniProt Q14994). Particulars: 10 μM SFN.
Data set [12] relates to rat CYP3A. Particulars: in vivo; cited from earlier work.
The target of data set [13] is PPARγ (Homo sapiens, UniProt P37231). Particulars: 10 μM SFN.
Data set [14] has as its system human hepatocytes. Particulars: pretreatment with 50 μM SFN; cited from earlier work.
Data set [15] concerns MDR1 (ABCB1). The conditions noted are these: LS180 cells.
The target in data set [16] is PPARα (Homo sapiens, UniProt Q07869). The conditions noted are these: 10 μM SFN.
Data set [17] has as its target VDR (Homo sapiens, UniProt P11473). The conditions noted are these: 10 μM SFN.
The target of data set [18] is CYP3A4 (Homo sapiens, UniProt P08684). Particulars: concentrations as high as 50 μM; cited from earlier work.
In data set [19] the test system is CYP3A4. Particulars: LS180 cells, SFN 24 hrs pre-treatment.
Data set [20] has as its system CYP3A4. The conditions noted are these: hepatocytes.
The target of data set [21] is human SXR ligand binding domain (Homo sapiens, UniProt O75469). Nature of the data set: biochemical.
For data set [22], the target named is GAL4-SXR (Homo sapiens, UniProt O75469). Nature of the data set: cell-based.
The subject of data set [23] is CYP3A4. The conditions noted are these: for average CYP3A4 mRNA levels relative to the solvent control: 48 hrs.
Data set [24] has as its target T2, VP16-SXR (human, UniProt O75469 1-434).
T2 construct: also called steroid and xenobiotic receptor; pregnane X receptor
T2 sequence: T1 sequence (O75469 1-434)
Nature of the data set: mammalian two-hybrid in HepG2 cells (GAL4 reporter, VP16-SXR, GAL-ACTR), with rifampicin.

Data set [25] deals with T2, VP16-SXR. Nature of the data set: mammalian two-hybrid in HepG2 cells (GAL4 reporter, VP16-SXR, GAL-TIF2), with rifampicin.

Where two headings read alike, the source gives them in different places.

Sequence of CAR (Q14994 109-352 limits assumed): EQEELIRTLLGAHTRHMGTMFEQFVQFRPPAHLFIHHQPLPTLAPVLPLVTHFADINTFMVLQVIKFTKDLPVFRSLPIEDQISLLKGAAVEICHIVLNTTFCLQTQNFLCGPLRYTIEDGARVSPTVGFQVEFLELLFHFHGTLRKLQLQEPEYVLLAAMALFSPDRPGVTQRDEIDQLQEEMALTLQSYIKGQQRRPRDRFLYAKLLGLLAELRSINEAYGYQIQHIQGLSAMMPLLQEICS
Sequence of VDR (P11473 127-423 limits assumed, species assumed): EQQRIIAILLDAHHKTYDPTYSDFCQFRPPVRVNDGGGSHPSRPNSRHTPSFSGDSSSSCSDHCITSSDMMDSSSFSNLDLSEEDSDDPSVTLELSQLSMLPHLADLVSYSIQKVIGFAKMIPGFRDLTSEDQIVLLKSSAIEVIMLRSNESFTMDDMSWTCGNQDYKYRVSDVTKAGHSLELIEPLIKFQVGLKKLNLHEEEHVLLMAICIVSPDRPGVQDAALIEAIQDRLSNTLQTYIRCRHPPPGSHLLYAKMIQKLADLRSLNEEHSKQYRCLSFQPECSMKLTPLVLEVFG
Sequence of rat PXR (Q9R1A7 143-430 limits assumed): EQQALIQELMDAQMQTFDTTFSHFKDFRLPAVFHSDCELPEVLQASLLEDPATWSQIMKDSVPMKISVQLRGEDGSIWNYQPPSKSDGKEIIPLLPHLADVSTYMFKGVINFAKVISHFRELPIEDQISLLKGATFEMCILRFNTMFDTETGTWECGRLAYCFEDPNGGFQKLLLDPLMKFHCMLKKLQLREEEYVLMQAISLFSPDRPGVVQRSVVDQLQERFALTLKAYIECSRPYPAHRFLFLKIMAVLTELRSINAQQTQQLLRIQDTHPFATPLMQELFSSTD
Sequence of mouse PXR (O54915 143-430 limits assumed): as the sequence (Q9R1A7 143-430 limits assumed) above, with D36G, V42F, S61R, V68L, H118Y, E121D, R191H, E192K, T272S counted along it
Sequence of PPARγ (P37231 238-503 limits assumed, species assumed): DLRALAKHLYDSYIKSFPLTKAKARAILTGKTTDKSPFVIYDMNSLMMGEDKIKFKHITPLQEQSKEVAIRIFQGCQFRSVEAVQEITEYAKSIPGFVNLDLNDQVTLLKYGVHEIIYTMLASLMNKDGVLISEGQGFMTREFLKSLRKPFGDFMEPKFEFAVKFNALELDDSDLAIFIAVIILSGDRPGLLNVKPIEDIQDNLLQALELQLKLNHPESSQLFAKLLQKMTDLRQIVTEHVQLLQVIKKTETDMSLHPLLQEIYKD
Sequence of PPARα (Q07869 239-466 limits assumed, species assumed): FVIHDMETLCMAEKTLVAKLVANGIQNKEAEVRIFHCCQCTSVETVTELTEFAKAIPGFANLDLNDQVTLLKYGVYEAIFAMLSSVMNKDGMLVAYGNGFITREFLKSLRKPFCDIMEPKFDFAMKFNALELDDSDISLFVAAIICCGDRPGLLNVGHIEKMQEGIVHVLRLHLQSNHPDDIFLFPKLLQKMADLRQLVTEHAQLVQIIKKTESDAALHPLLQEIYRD
Sequence of CYP3A4 (Homo sapiens, UniProt P08684) (P08684 whole entry): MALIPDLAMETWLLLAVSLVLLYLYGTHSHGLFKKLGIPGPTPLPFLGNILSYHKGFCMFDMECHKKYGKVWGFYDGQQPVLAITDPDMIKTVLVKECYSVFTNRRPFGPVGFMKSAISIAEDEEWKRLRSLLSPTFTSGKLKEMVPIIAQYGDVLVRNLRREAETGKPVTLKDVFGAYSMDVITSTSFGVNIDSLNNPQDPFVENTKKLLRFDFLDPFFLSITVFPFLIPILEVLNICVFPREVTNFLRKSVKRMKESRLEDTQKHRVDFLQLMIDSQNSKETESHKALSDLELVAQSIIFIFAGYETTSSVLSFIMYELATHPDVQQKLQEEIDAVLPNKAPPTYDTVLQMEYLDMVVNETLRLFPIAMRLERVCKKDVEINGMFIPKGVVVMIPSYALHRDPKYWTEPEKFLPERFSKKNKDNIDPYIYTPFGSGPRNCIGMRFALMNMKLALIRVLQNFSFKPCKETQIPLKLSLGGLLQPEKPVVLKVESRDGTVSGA

Take `CS(=O)(=O)CCCN=C=S` [Cheirolin]: in [1] (10 μM RIF, low concentration, compared with SFN), the “inhibitory effect toward SXR function at low concentration” value is reported as “less potent at low concentration”.
Turning to `C[S+]([O-])CCCN=C=S` (stereo not drawn) [Iberin], in data set [1] (10 μM RIF, compared with SFN), the “inhibitory activity toward SXR function (SFN analogs)” value is reported as “little effect on inhibitory potency”.
The same measure, in the same setting: the result for `S=C=NCCc1ccccc1` [PEITC, reference compound] reads “substantial loss of the inhibitory effect”.
Turning to `CC#C[C@]1(O)CC[C@H]2[C@@H]3CCC4=CC(=O)CCC4=C3[C@@H](c3ccc(N(C)C)cc3)C[C@@]21C` [RU486, mifepristone, reference compound], in data set [2], the “effect on UGT1A1 gene expression” value is “slightly induced”.
For the molecule `C[S+]([O-])CCCCN=C=S` (stereo not drawn) [SFN, 4-methylsulfinylbutyl isothiocyanate], the “induction of NQO1” value in [3] is given as “significantly induced”. The “inhibition of RIF induced SRC-1 recruitment to SXR” value in data set [4] is “inhibited RIF induced SRC-1 and PBP recruitment to SXR in a dose dependent manner”. Further, in data set [5], the “activity as activating ligand of mPXR” value is reported as “nor did it serve as an activating ligand” and the “inhibition of ligand activation of mPXR” value is listed as “did not inhibit ligand activation”. The “induction of NQO1” value in [6] is recorded as “significantly induced”. Moreover, the “mRNA levels of detoxification enzymes including NQO1, GCLM and GCLC” value in data set [7] was “increased mRNA levels”. Further, in data set [1], the IC50 was approximately 12 µM. Further, the “inhibition of RIF and RU486 induced reporter activities” value in data set [1] (10 μM RIF or RU486, dose-dependent) is given as “significantly inhibited”. In data set [1] (25 μM SFN, 10 μM RIF), the “inhibition of RIF induced SXR reporter activity” value is listed as “blocked most of the RIF induced SXR reporter activity”. The “concentration as low as which SXR reporter activity was inhibited” value in data set [1] (HepG2, RIF or RU486 induced) was 1000 nM. Also, in data set [8], the “activity as activating ligand of rPXR” value was “nor did it serve as an activating ligand” and the “inhibition of ligand activation of rPXR” value is reported as “did not inhibit ligand activation”. In [9], the “peak plasma concentration of unconjugated SFN” value is 4 to 5 µM. Further, the “inhibition of RIF induced PBP recruitment to SXR” value in data set [10] is “inhibited RIF induced SRC-1 and PBP recruitment to SXR in a dose dependent manner”. Moreover, in [11], the “activity as activating ligand of CAR” value was “nor did it serve as an activating ligand” and the “inhibition of ligand activation of CAR” value is “did not inhibit ligand activation”. In addition, the “inhibition of rat CYP3A gene expression” value in data set [12] is listed as “did not inhibit rat CYP3A gene expression”. In addition, in [13], the “activity as activating ligand of PPARγ” value is “nor did it serve as an activating ligand” and the “inhibition of ligand activation of PPARγ” value was “did not inhibit ligand activation”. Also, in data set [2], the “effect on UGT1A1 gene expression” value is given as “induced UGT1A1 gene expression”. Also, the “decrease in DNA adduction of aflatoxin B1” value in data set [14] is given as more than 90%. Also, the “inhibition of RIF or RU486 induced expression of MDR1 (ABCB1)” value in [15] is reported as “inhibited RIF or RU486 induced expression of MDR1”. In data set [16], the “activity as activating ligand of PPARα” value is given as “nor did it serve as an activating ligand” and the “inhibition of ligand activation of PPARα” value is on record as “did not inhibit ligand activation”. Also, in data set [17], the “activity as activating ligand of VDR” value is “nor did it serve as an activating ligand” and the “inhibition of ligand activation of VDR” value is given as “did not inhibit ligand activation”. Besides, the “direct inhibition of CYP3A4 catalytic activity” value in data set [18] is “not a direct inhibitor”. For the same molecule, in data set [19], the “reduction in RIF- and RU486-mediated induction of CYP3A4” value is recorded as “dose-related reduction”. Besides, in data set [20], the “effect on basal level of CYP3A4 expression” value is recorded as “significantly reduced the basal level”. Further, in data set [21], the Ki was 16 µM. Also, in data set [22], the IC50 was found to be 14 µM. The “average CYP3A4 mRNA levels relative to the solvent control” value in [23] (10 μM SFN) was 69%. For the same molecule, the “average CYP3A4 mRNA levels relative to the solvent control” value in data set [23] (25 μM SFN) was 20%. Moreover, the “average CYP3A4 mRNA levels relative to the solvent control” value in data set [23] (50 μM SFN) was 13%. Further, the “CYP3A4 responses in single individuals, lowest, of the solvent control” value in [23] (single individuals) is 2%.
Regarding `C[S+]([O-])CCCCC#N` (stereo not drawn) [SFN-nitrile, reference compound], the “inhibitory activity toward SXR function (SFN analogs)” value in data set [1] (10 μM RIF, compared with SFN) is “no inhibitory activity”.

B1: GAL4 DNA-binding domain linked to the receptor interaction domains of activator of thyroid and retinoic acid receptor (GAL-ACTR) (other)
chain: MKLLSSIEQACDICRLKKLKCSKEKPKCAKCLKNNWECRYSPKTKRSPLTRAHLTEVESRLERLEQLFLLIFPREDLDMILKMDSLQDIKALLTGLFVQDNVNKDAVTDRLASVETDMPLTLRQHRISATSSSEESSNKGQRQLTVSESSVEGAENQRGPLESKGHKKLLQLLTCSSDDRGHSSLTNSPLDSSCKESSVSVTSPSGVSSSTSGGVSSTSNMHGSLLQEKHRILHKLLQNGNSPAEVAKITAEATGKDTSSITSCGDGNVVKQEQLSPKKKENNALLRYLLDRDDPSDALSKELQPQVEGVDNKMSQCTSSTIPSSSQEKDPKIKTE
As to B1, the binding result in data set [24] is reported as “no binding (tested: 10 µM RIF)”.

B2: GAL4 DNA-binding domain linked to the receptor interaction domains of transcriptional intermediary factor (GAL-TIF2) (other)
chain: MKLLSSIEQACDICRLKKLKCSKEKPKCAKCLKNNWECRYSPKTKRSPLTRAHLTEVESRLERLEQLFLLIFPREDLDMILKMDSLQDIKALLTGLFVQDNVNKDAVTDRLASVETDMPLTLRQHRISATSSSEESSNKGQRQLTVSQNSPVNMNPPPLSKMGSLDSKDCFGLYGEPSEGTTGQAESSCHPGEQKETNDPNLPPAVSSERADGQSRLHDSKGQTKLLQLLTTKSDQMEPSPLASSLSDTNKDSTGSLPGSGSTHGTSLKEKHKILHRLLQDSSSPVDLAKLTAEATGKDLSQESSSTAPGSEVTIKQEPVSPKKKENALLRYLLDKDDTKDIGLPEITPKLERLDSKTDPASNTKLIAMKTEKEE
Take B2: in [25], the binding result is reported as “no binding (tested: 10 µM RIF)”.
